Consider 34 compounds from patent US20260356824A1, “COMPOUNDS FOR TREATING FIBROTIC DISEASES” (Meta-Immue Inc., priority 2023, published 2026).

For experiment [1], the target named is T1, hLPAR1 (Homo sapiens, UniProt Q92633).
T1 construct: expressed in transfected cells
Nature of the experiment: Ca2+ Flux Assay (B103 cells stably expressing hLPAR1). It counts as cell-based. As to conditions: LPA-induced calcium release, Fura-2 AM, compound 20 min at RT. How it is done: B103 cells stably expressing hLPAR1 were seeded at a density of 1.0×10^5 cells per well in clear flat-bottom black 96-well plates and incubated overnight in complete media. The following day, the cells were pre-incubated in serum-free media for 2 hours prior to ensure cellular equilibration. For the loading a calcium-sensitive fluorescent dye, the cells were treated with a concentration of 5 μM Fura-2 AM dye (Sigma, F1225) in Hank's buffered salt solution (HBSS) supplemented with 20 mM HEPES, […], and 0.3% fatty-acid-free bovine serum albumin for 40 minutes at room temperature (RT). Test compounds, prepared in DMSO, were then added to each well and incubated for 20 minutes at RT. To induce calcium release, a concentration of […] in HBSS supplemented with 20 mM HEPES, and 0.3% fatty-acid-free bovine serum albumin was introduced. Intracellular calcium mobilization was subsequently quantified by monitoring the fluorescence intensity using the Spark® multimode microplate reader (TECAN).
Background: Calcium flux is commonly read through the fluorescence of an indicator in the cells.

The subject of experiment [2] is A2058 cells. Nature of the experiment: Chemotaxis Assay (LPA-induced migration of A2058 cells). It counts as cell-based. As to conditions: Homo sapiens, 4 to 8 hours, crystal violet 590 nm. On the procedure: For monitoring the migration of cells, Neuroprobe ChemoTx® System plates ([…], 5.7 mm diameter sites; Gaithersburg, MD, USA) were utilized. To induce cell migrations, a concentration of […] or vehicle in DMEM were loaded to the bottom chamber. A total of 15,000 A2058 cells, which were starved for 24 hr following treated with test compounds or vehicle, were then applied to the upper membrane coated with 0.001% fibronectin. The plate was incubated for 4 to 8 hours to allow cell migration. Following incubation, the plate was dissembled, and the migrated cells were visualized by crystal violet staining. The stained area with crystal violet was quantified by measuring the absorbance at 590 nm and the relative percentage of the control was calculated.

T1 sequence (Q92633 whole entry): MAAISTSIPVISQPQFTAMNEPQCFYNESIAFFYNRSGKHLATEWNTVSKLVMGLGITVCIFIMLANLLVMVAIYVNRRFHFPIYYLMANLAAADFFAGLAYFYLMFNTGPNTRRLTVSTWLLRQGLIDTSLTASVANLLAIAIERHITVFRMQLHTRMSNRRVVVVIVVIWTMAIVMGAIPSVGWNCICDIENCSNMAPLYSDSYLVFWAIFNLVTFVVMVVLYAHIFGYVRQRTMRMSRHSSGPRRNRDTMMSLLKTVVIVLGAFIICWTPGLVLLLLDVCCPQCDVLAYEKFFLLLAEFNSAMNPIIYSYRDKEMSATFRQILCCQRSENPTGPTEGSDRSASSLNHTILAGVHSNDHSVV

As a reminder, the IC50 is the midpoint of a concentration-inhibition curve. Consider `COc1cc(C2(C(=O)NS(=O)(=O)CCC(=O)O)CC2)ccc1N1CCC(c2onc(C)c2NC(=O)O[C@H](C)c2ccccc2)CC1` [Compound 1, 3-[[1-[3-methoxy-4-[4-[3-methyl-4-[[(1R)-1-phenylethoxy]carbonylamino]isoxazol-5-yl]-1-piperidyl]phenyl]cyclopropanecarbonyl]sulfamoyl]propanoic acid], for which the IC50 is less than 10 nM in experiment [1] and less than 100 nM in experiment [2].

With `C=CCS(=O)(=O)NC(=O)C1(c2ccc(N3CCC(c4onc(C)c4NC(=O)O[C@H](C)c4ccccc4)CC3)cc2)CC1` [Compound 2, (1R)-1-phenylethyl N-{3-methyl-5-[1-(4-{1-[(prop-2-ene-1-sulfonyl)carbamoyl]cyclopropyl}phenyl)piperidin-4-yl]-1,2-oxazol-4-yl}carbamate], the results for the IC50 in experiment [1] and in experiment [2] were less than 10 nM and less than 100 nM, respectively.

`COc1cc(C2(CNS(=O)(=O)CCC(=O)O)CC2)ccc1N1CCC(c2nnn(C)c2NC(=O)O[C@H](C)c2ccccc2)CC1` [Compound 3]: the IC50 in experiment [1] was less than 10 nM; in experiment [2] it was no less than 5000 nM.

For `COc1cc(C2(C(=O)O)CC2)ccc1N1CCC(c2nnn(C)c2NC(=O)O[C@H](C)c2ccccc2)CC1` [Compound 4], the results for the IC50 in experiment [1] and in experiment [2] were less than 10 nM and 500 to 5000 nM, respectively.

Take `Cc1noc(C2CCN(c3ccc(C4(C(=O)O)CC4)cc3)CC2)c1NC(=O)OCC1CC1` [Compound 5]: the IC50 is 10 to 200 nM in experiment [1] and 500 to 5000 nM in experiment [2].

As to `Cc1noc(C2CCN(c3ccc(C4(C(=O)NS(C)(=O)=O)CC4)cc3)CC2)c1NC(=O)O[C@H](C)c1ccccc1Cl` [Compound 11], the IC50 lay within 10 to 200 nM in experiment [1] and 100 to 500 nM in experiment [2].

For the compound `Cc1noc(C2CCN(c3ccc(C4(C(=O)OCc5oc(=O)oc5C)CC4)cc3)CC2)c1NC(=O)O[C@H](C)c1ccccc1` [Compound 14], the IC50 was less than 10 nM in experiment [1] and less than 100 nM in experiment [2].

Take `Cc1nnn(C2CCN(c3ccc(C4(C(=O)NS(=O)(=O)C(F)(F)F)CC4)cc3)CC2)c1NC(=O)O[C@H](C)c1ccccc1` [Compound 15]: the values for the half-inhibitory concentration (IC50) in experiment [1] and in experiment [2] were 200 to 3000 nM and 500 to 5000 nM, respectively.

`Cc1noc(C2CCN(c3ccc(C4(C(=O)O)CC4)cc3)CC2)c1NC(=O)N[C@H](C)c1ccccc1` [Compound 16]: the figures for the half-maximal inhibitory concentration (IC50) in experiment [1] and in experiment [2] were 10 to 200 nM and 500 to 5000 nM, respectively.

As to `COc1c(C)cc(NC(=O)O[C@H](C)c2ccccc2)c(C2CCN(c3ccc(C4(C(=O)O)CC4)cc3)CC2)c1C` [Compound 18], the values for the IC50 in experiment [1] and in experiment [2] were 200 to 3000 nM and 500 to 5000 nM, respectively.

`COCc1ccccc1[C@H](C)OC(=O)Nc1c(C2CCN(c3ccc(C4(C(=O)O)CC4)cc3)CC2)nnn1C` [Compound 24, (S)-1-(4-(4-(5-(((1-(2-(methoxymethyl)phenyl)ethoxy)carbonyl)amino)-1-methyl-1H-1,2,3-triazol-4-yl)piperidin-1-yl)phenyl)cyclopropane-1-carboxylic acid]: the IC50 in experiment [1] is less than 10 nM; in experiment [2], 100 to 500 nM.

As for `C[C@@H](OC(=O)Nc1c(C2CCN(c3ccc(C4(C(=O)O)CC4)cc3)CC2)nnn1C)C1CCCCC1` [Compound 26, (R)-1-(4-(4-(5-(((1-cyclohexylethoxy)carbonyl)amino)-1-methyl-1H-1,2,3-triazol-4-yl)piperidin-1-yl)phenyl)cyclopropane-1-carboxylic acid], the IC50 in experiment [1] was less than 10 nM; in experiment [2], 500 to 5000 nM.

Take `C[C@@H](OC(=O)Nc1c(C2CCN(c3ccc(C4(C(=O)O)CC4)cc3)CC2)nnn1C)c1ccccc1Cl` [Compound 27, 1-(4-{4-[5-({[(1R)-1-(2-chlorophenyl)ethoxy]carbonyl}amino)-1-methyl-1H-1,2,3-triazol-4-yl]piperidin-1-yl}phenyl)cyclopropane-1-carboxylic acid]: the IC50 was less than 10 nM in experiment [1] and less than 100 nM in experiment [2].

Take `C[C@@H](OC(=O)Nc1cccnc1C1CCN(c2ccc(C3(C(=O)O)CC3)cc2)CC1)c1ccccc1` [Compound 28]: the results for the IC50 in experiment [1] and in experiment [2] were 10 to 200 nM and 500 to 5000 nM, respectively.

Regarding `Cc1ncnc(C2CCN(c3ccc(C4(C(=O)O)CC4)cc3)CC2)c1NC(=O)O[C@H](C)c1ccccc1` [Compound 29], the 50% inhibitory concentration (IC50) is 200 to 3000 nM in experiment [1] and 500 to 5000 nM in experiment [2].

`Cc1noc(C2CCN(c3ccc(C4(C(=O)O)CC4)cc3)CC2)c1NC(=O)O[C@H](C)c1ccccc1C(C)(C)F` [Compound 30]: the figures for the IC50 in experiment [1] and in experiment [2] were 10 to 200 nM and 500 to 5000 nM, respectively.

On to `Cc1ccccc1[C@@H](C)OC(=O)Nc1c(C)noc1C1CC2(C1)CN(c1ccc(C3(C(=O)NS(=O)(=O)CCC(=O)O)CC3)cc1)C2` [Compound 31, 3-({[1-(4-{6-[3-methyl-4-({[(1R)-1-(2-methylphenyl)ethoxy]carbonyl}amino)-1,2-oxazol-5-yl]-2-azaspiro[3.3]heptan-2-yl}phenyl)cyclopropyl]formamido}sulfonyl)propanoic acid], for which the IC50 in experiment [1] is 10 to 200 nM; in experiment [2], less than 100 nM.

Take `Cc1noc(C2CCN(c3ccc(C4(C(=O)O)CC4)cc3)CC2)c1NC(=O)[C@H](O)c1ccccc1` [Compound 32]: the figures for the IC50 in experiment [1] and in experiment [2] were 200 to 3000 nM and no less than 5000 nM, respectively.

For the compound `Cc1ccccc1[C@@H](C)OC(=O)Nc1c(C2CCN(c3ccc(C4(C(=O)O)CC4)cc3)CC2)cnn1C` [Compound 34], the IC50 in experiment [1] was 10 to 200 nM; in experiment [2], less than 100 nM.

As for `Cc1ccccc1[C@@H](C)OC(=O)Nc1c(C)nsc1C1CCN(c2ccc(C3(C(=O)O)CC3)cc2)CC1` [Compound 36], the IC50 is less than 10 nM in experiment [1] and less than 100 nM in experiment [2].

`C[C@@H](OC(=O)Nc1c(C2CCN(c3ccc(C4(C(=O)NS(=O)(=O)C5(C(=O)O)CC5)CC4)cc3)CC2)nnn1C)c1ccccc1Cl` [Compound 39, 1-[[1-[4-[4-[5-[[(1R)-1-(2-chlorophenyl)ethoxy]carbonylamino]-1-methyl-triazol-4-yl]-1-piperidyl]phenyl]cyclopropanecarbonyl]sulfamoyl]cyclopropanecarboxylic acid]: the IC50 is less than 10 nM in experiment [1] and less than 100 nM in experiment [2].

For the compound `C[C@@H](OC(=O)Nc1c(C2CCN(c3ccc(C4(C(=O)NS(=O)(=O)CC(C)(C)C(=O)O)CC4)cc3)CC2)nnn1C)c1ccccc1Cl` [Compound 40], the IC50 in experiment [1] is 10 to 200 nM; in experiment [2], 100 to 500 nM.

Take `C[C@@H](OC(=O)Nc1c(C2CCN(c3ccc(C4(C(=O)NS(=O)(=O)CC5(C(=O)O)CC5)CC4)cc3)CC2)nnn1C)c1ccccc1Cl` [Compound 41]: the half-inhibitory concentration (IC50) in experiment [1] was less than 10 nM; in experiment [2], 100 to 500 nM.

For the compound `Cc1nsc(C2CCN(c3ccc(C4(C(=O)O)CC4)cc3)CC2)c1NC(=O)O[C@H](C)c1ccccc1Cl` [Compound 42], the values for the half-inhibitory concentration (IC50) in experiment [1] and in experiment [2] were 10 to 200 nM and less than 100 nM, respectively.

On to `Cc1nsc(C2CCN(c3ccc(C4(C(=O)O)CC4)cc3)CC2)c1NC(=O)O[C@H](C)c1ccccc1F` [Compound 43], for which the IC50 in experiment [1] fell in the range of 10 to 200 nM; in experiment [2], 100 to 500 nM.

On to `COc1ccccc1[C@@H](C)OC(=O)N(C)c1c(C)nsc1C1CCN(c2ccc(C3(C(=O)O)CC3)cc2)CC1` [Compound 44], for which the IC50 in experiment [1] lay in the range of 10 to 200 nM; in experiment [2], 100 to 500 nM.

As to `Cc1noc(C2CCN(c3ccc(C4(C(=O)O)CC4)cc3)CC2)c1N(C)C(=O)O[C@H](C)c1ccccc1` [Compound 45], the IC50 was in the range of 10 to 200 nM in experiment [1] and 100 to 500 nM in experiment [2].

Turning to `COc1cc(C2(C(=O)O)CC2)ccc1N1CC2(CC(c3onc(C)c3NC(=O)O[C@H](C)c3ccccc3)C2)C1` [Compound 46, 1-(3-methoxy-4-{6-[3-methyl-4-({[(1R)-1-phenylethoxy]carbonyl}amino)-1,2-oxazol-5-yl]-2-azaspiro[3.3]heptan-2-yl}phenyl)cyclopropane-1-carboxylic acid], the IC50 is less than 10 nM in experiment [1] and 500 to 5000 nM in experiment [2].

With `CO[C@@H](C(=O)Nc1c(C)noc1C1CCN(c2ccc(C3(C(=O)O)CC3)cc2)CC1)c1ccccc1` [Compound 47], the IC50 in experiment [1] fell in the range of 200 to 3000 nM; in experiment [2] it was 500 to 5000 nM.

As to `Cc1noc(C2CC3(C2)CN(c2ccc(C4(C(=O)NS(=O)(=O)CC(=O)O)CC4)cc2)C3)c1NC(=O)O[C@H](C)c1ccccc1` [Compound 48], the IC50 in experiment [1] was 10 to 200 nM; in experiment [2], less than 100 nM.

For `Cc1noc(C2CCN(c3ccc(C4(C(=O)O)CC4)cc3)CC2)c1Nc1cccc(-c2ccccc2)n1` [Compound 49], the IC50 in experiment [1] was in the range of 10 to 200 nM; in experiment [2] it was 500 to 5000 nM.

With `Cc1noc(C2CC3(C2)CN(c2ccc(C4(C(=O)NS(=O)(=O)CCC(=O)O)CC4)cc2)C3)c1NC(=O)O[C@H](C)c1ccccc1` [Compound 50], the half-maximal inhibitory concentration (IC50) in experiment [1] was less than 10 nM; in experiment [2] it was less than 100 nM.

For the compound `Cc1nnn(C2CCN(c3ccc(C4(C(=O)O)CC4)cc3)CC2)c1NC(=O)O[C@H](C)c1ccccc1Cl` [Compound 51], the IC50 in experiment [1] was less than 10 nM; in experiment [2] it was 500 to 5000 nM.

Take `Cc1noc(C2CC3(C2)CN(c2ccc(C4(C(=O)NS(=O)(=O)CCCO)CC4)cc2)C3)c1NC(=O)O[C@H](C)c1ccccc1` [Compound 52]: the 50% inhibitory concentration (IC50) in experiment [1] was less than 10 nM; in experiment [2], less than 100 nM.
